Measurements as given in PMC10223987 (Viruses, 2023).
Structures can show the parent of a compound that is named as a salt. Where two headings read alike, the source gives them in different places.

What was measured:
[1] = test system: DSP1-7 and DSP8-11 co-expressing 293FT cells; assay: cells; type: cell-based; conditions: TMPRSS2-independent / DSP reassociation control; read-out: CoTF Assay IC50
thrombin = thrombin (Homo sapiens, UniProt P00734); assay: Thrombin enzyme inhibition assay; type: biochemical
TMPRSS2 = TMPRSS2 (Homo sapiens, UniProt O15393); assay: TMPRSS2 enzyme inhibition assay (fluorescence-quenched peptide substrate); type: biochemical; conditions: enzymatic assay
TMPRSS2, sequence (O15393 whole entry): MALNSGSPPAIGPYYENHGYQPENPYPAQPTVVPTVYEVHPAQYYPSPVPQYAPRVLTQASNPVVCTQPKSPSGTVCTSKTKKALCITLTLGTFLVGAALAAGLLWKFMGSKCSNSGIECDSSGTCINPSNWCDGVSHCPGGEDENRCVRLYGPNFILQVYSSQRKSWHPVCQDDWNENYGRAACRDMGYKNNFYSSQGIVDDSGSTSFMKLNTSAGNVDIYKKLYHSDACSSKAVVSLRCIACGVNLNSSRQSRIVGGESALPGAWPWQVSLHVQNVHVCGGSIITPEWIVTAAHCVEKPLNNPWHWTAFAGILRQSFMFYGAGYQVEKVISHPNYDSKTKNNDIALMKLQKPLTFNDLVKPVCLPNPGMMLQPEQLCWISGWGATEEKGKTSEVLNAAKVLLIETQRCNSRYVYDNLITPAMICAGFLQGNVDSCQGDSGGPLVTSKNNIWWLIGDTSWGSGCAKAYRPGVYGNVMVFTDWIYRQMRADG

VeroE6-TMPRSS2 cells = assay: Cell toxicity assay (Celltiter-Glo); type: cell-based; conditions: 24 h, read-out: Cell Viability Inhibition IC50
[2] = test system: ACE2/TMPRSS2-dependant SARS-CoV-2 S protein-mediated membrane fusion; assay: microbe, parasite or virus in culture; type: cell-based
factor Xa = factor Xa (Homo sapiens, UniProt P00742); assay: Factor Xa enzyme inhibition assay; type: biochemical
factor Xa, sequence (P00742 235-488 limits assumed): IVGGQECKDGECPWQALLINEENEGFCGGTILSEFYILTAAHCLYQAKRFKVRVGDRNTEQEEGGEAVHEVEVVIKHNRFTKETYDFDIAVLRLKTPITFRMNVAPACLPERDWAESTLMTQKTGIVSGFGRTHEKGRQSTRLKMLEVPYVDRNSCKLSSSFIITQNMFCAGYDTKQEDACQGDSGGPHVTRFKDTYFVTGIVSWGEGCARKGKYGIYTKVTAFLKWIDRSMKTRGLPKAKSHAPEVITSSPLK
factor Xa, sequence (P00742 41-179 partner limits assumed): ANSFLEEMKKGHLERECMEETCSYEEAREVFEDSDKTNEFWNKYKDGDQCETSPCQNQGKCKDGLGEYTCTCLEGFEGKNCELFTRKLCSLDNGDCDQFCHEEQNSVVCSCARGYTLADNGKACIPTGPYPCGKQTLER

SARS-CoV-2 pseudovirus = assay: microbe, parasite or virus in culture; type: cell-based; conditions: Severe acute respiratory syndrome-related coronavirus; for inhibition at 100 µM: VeroE6/TMPRSS2, read-out: SARS-CoV-2 Pseudovirus % Inhibition; for IC50: VeroE6/TMPRSS2, read-out: SARS-CoV-2 Pseudovirus IC50
[3] = cited from earlier work
[4] = Severe acute respiratory syndrome coronavirus 2, read-out: S2TA Assay IC50

SMILES	melting point [°C]	IC50 [1] [µM]	IC50 (thrombin) [nM]	IC50 (TMPRSS2) [µM]	IC50 (VeroE6-TMPRSS2 cells) [µM]	IC50 [2, 4] [µM]	IC50 (factor Xa) [µM]	fold less potential factor Xa inhibitor relative to pentamidine (factor Xa; relative to pentamidine) [fold]	inhibition at 100 µM (SARS-CoV-2 pseudovirus) [%]	IC50 (SARS-CoV-2 pseudovirus) [µM]	IC50 ([2]; read-out: S2TA Assay IC50) [µM]	plasma half-life [3]
N=C(N)c1ccc2nc(-c3cccc(-c4nc5ccc(C(=N)N)cc5[nH]4)n3)[nH]c2c1 (as salt: HCl) [Compound 10]	> 300											
N=C(N)c1ccc(-c2ccc(-c3ccc(C(=N)N)cc3)o2)cc1 [Compound 7]		> 100	79100	82.7	> 100	> 100	30.9	5	2.66	> 100		
N=C(N)c1ccc2nc(-c3cccc(-c4nc5ccc(C(=N)N)cc5[nH]4)n3)[nH]c2c1 [Compound 10]		37.8	921				5.93					
CC(C)NC(=N)c1ccc2nc(-c3cccc(-c4nc5ccc(C(=N)NC(C)C)cc5[nH]4)n3)[nH]c2c1 [Compound 11]		> 100	> 1000	> 10	> 100	> 100	> 1		27	> 100		
N=C(N)c1ccc2nc(-c3cccc(-c4nc5ccc(C(=N)N)cc5[nH]4)c3)[nH]c2c1 [Compound 12]		> 100	862	4.89	> 100	> 100	34.1		17.1	> 100		
N=C(N)c1ccc2nc(-c3ccc(-c4cccc(-c5ccc(-c6nc7ccc(C(=N)N)cc7[nH]6)cc5)n4)cc3)[nH]c2c1 [Compound 13]		37	929	72.4	> 100	13.7	4.89		20.5	> 100		
CC(C)NC(=N)c1ccc2nc(-c3ccc(-c4cccc(-c5ccc(-c6nc7ccc(C(=N)NC(C)C)cc7[nH]6)cc5)n4)cc3)[nH]c2c1 [Compound 14]		31	2250	> 100	> 100	16.9	> 10		77.4	83.7	10.9	
N=C(N)c1ccc2cc(OC(=O)c3ccc(N=C(N)N)cc3)ccc2c1 [Nafamostat, nafamostat, reference compound]			34.1				1.74					less than 1 min
N=C(N)c1ccc(OCCCCCOc2ccc(C(=N)N)cc2)cc1 [Pentamidine, pentamidine, reference compound]		> 100	1510	3.98	> 100	32.3	6.22		69.5	45		
CN(C)C(=O)COC(=O)Cc1ccc(OC(=O)c2ccc(NC(=N)N)cc2)cc1 [camostat]												23.1 min
